The values below are quoted from earlier work in publication PMC4096870 (ChemMedChem, 2014).

What is called Ki is a dissociation constant, usually derived from enzyme kinetics or from competition with a known ligand. The kinact is the rate constant of inactivation at saturating inhibitor. As a reminder, the kinact/KI is the maximal inactivation rate divided by the concentration that gives half of it. Usually IC50 stands for the concentration that gives 50% inhibition.

SMILES strings stand for the structures.

In the case of `O=P(O)(O)C(Br)c1ccccc1` (stereo not drawn) [BBP, α-bromobenzyl phosphonate], on YopH, the Ki was 4100 µM, the kinact is 0.002 s⁻¹ and the kinact/KI was 0.49 M⁻¹ s⁻¹.

Take `C=CS(=O)(=O)Oc1ccccc1` [PVSN, phenyl vinyl sulfonate]: on YopH, the Ki is 290 µM and the kinact is 0.01 s⁻¹.

With `O=C(Oc1cc(O)cc2c1C[C@@H](OC(=O)c1cc(O)c(O)c(O)c1)[C@@H](c1cc(O)c(O)c(O)c1)O2)c1cc(O)c(O)c(O)c1` [epigallocatechin-3,5-digallate], in the series on LYP, the half-inhibitory concentration (IC50) is 0.05 µM.

In the case of `C=CS(=O)(=O)c1ccccc1` [PVS, phenyl vinyl sulfone], at YopH, the Ki was 350 µM, the inactivation rate constant (kinact) was 0.001 s⁻¹ and the kinact/KI was 2.9 M⁻¹ s⁻¹.
